Legend:
[1] = system: Bacillus subtilis; test: Antimicrobial activity against Bacillus subtilis (agar plate-cylinder); type: cell-based; settings: standard bleomycin A2 (copper-free) assumed 1,000 mcg potency/mg
Experimental: (§1) 2. ANT[…] MYC[…] ATCC 607 AND BACILLUS SUBTILIS
(§2) The antimicrobial activity was tested against the captioned test organisms by the method of agar plate-cylinder. The activity was recorded on the assumption that the activity of standard sample of bleomycin A2 (copper-free form) is 1,000 mcg poteney/mg.

[2] = system: Mycobacterium smegmatis ATCC 607; test: Antimicrobial activity against Mycobacterium smegmatis ATCC 607 (agar plate-cylinder); type: cell-based; settings: standard bleomycin A2 (copper-free) assumed 1,000 mcg potency/mg
Experimental: as §1, §2

[3] = system: pulmonary fibrosis; test: Pulmonary toxicity (pulmonary fibrosis) in mice; settings: for Incidence: Number of mice with pulmonary fibrosis (%) / Incidence: Number of mice with pulmonary fibrosis / Grade: Total score of pulmonary fibrosis/total number of samples / Grade: Total score of pulmonary fibrosis/total number of samples (%): ICR mice, 5 mg/kg i.p. once a day for 10 days; for Incidence: Number of mice with pulmonary fibrosis (%) / Incidence: Number of mice with pulmonary fibrosis: 5 weeks observation; for Incidence: Number of mice with pulmonary fibrosis: mice with fibrosis/total; for Grade: Total score of pulmonary fibrosis/total number of samples / Grade: Total score of pulmonary fibrosis/total number of samples (%): points 0, 1, 2, 4, 6; for Ratio (by comparison with "Bleomycin Complex"): versus Bleomycin Complex

SMILES | Antimicrobial potency of Cu-free compound against Bacillus subtilis [1] [mcg potency/mg] | Antimicrobial potency of Cu-free compound against Mycobacterium smegmatis ATCC 607 [2] [mcg potency/mg] | Incidence: Number of mice with pulmonary fibrosis (%) [3] [%] | Incidence: Number of mice with pulmonary fibrosis [3] | Grade: Total score of pulmonary fibrosis/total number of samples [3] | Grade: Total score of pulmonary fibrosis/total number of samples (%) [3] [%] | Ratio (by comparison with "Bleomycin Complex") [3]
Cc1c(N)nc(C(CC(N)=O)NCC(N)C(=O)NCCCN(C)CCCNCCc2ccc(Cl)cc2)nc1C(=O)NC(C(=O)NC(C)C(O)C(C)C(=O)NC(C(=O)NCCc1nc(-c2nc(C(=O)NCCCN(C)CCCNCCc3ccc(Cl)cc3)cs2)cs1)C(C)O)C(OC1OC(CO)C(O)C(O)C1OC1OC(CO)C(O)C(OC(N)=O)C1O)c1cnc[nH]1 (stereo not shown) [Compound 45, 3-{N--methyl-N--[3-(2-(p-chlorophenyl)ethyl)aminopropyl]amino}-propylamino(amido)N--{3-[N-- methyl-N--[3-(2-(p-chlorophenyl)-ethyl)aminopropyl]amino]propyl}-BLM] | 270 | 650 | 0 | 0/9 | 0/27 | 0 | 0
CCCCCCCCNC(=O)C(N)CNC(CC(N)=O)c1nc(N)c(C)c(C(=O)NC(C(=O)NC(C)C(O)C(C)C(=O)NC(C(=O)NCCc2nc(-c3nc(C(=O)NCCCN(C)CCCNCc4ccc(C#N)cc4)cs3)cs2)C(C)O)C(OC2OC(CO)C(O)C(O)C2OC2OC(CO)C(O)C(OC(N)=O)C2O)c2cnc[nH]2)n1 (stereo not shown) [Compound 62, 3-{N--methyl-N--[3-(p-cyanobenzylamino)propyl]amino}propylamino-(amido)N--[octyl]-BLM] | 381 | 49270 | 0 | 0/9 | 0/27 | 0 | 0
CC[N+](CC)(CCCNC(=O)c1csc(-c2csc(CCNC(=O)C(NC(=O)C(C)C(O)C(C)NC(=O)C(NC(=O)c3nc(C(CC(N)=O)NCC(N)C(=O)NCCCNC(C)c4ccccc4)nc(N)c3C)C(OC3OC(CO)C(O)C(O)C3OC3OC(CO)C(O)C(OC(N)=O)C3O)c3cnc[nH]3)C(C)O)n2)n1)CCCN(Cc1ccccc1)Cc1ccccc1 [Compound 55, 3-{N,N--diethyl-N--[3-(dibenzylamino)propyl]amino}-propyl-amino-(amido)N--[3-((S)-1'-phenylethyl)aminopropyl]-BLM] | 2150 | 20840 | 0 | 0/9 | 0/27 | 0 | 0
Cc1c(N)nc(C(CC(N)=O)NCC(N)C(=O)NCCCNC(C)c2ccccc2)nc1C(=O)NC(C(=O)NC(C)C(O)C(C)C(=O)NC(C(=O)NCCc1nc(-c2nc(C(=O)NCCCNC(C)c3ccccc3)cs2)cs1)C(C)O)C(OC1OC(CO)C(O)C(O)C1OC1OC(CO)C(O)C(OC(N)=O)C1O)c1cnc[nH]1 [Compound 22, 3-((S)-1'-phenylethyl)aminopropylamino-(amido)N--[3-((S)-1'-phenylethyl)aminopropyl]-BLM] | 2800 | 28030 | 13 | 1/8 | 1/21 | 4 | 0.05

Source: patent US4472304A, “(Amido)N-substituted bleomycins, salts thereof and process for preparation thereof” (Nippon Kayaku Kabushiki Kaisha, priority 1981, dated 1984)
